Experimental findings from US20200010482A1, “INHIBITORS OF BETA SECRETASE” (Janssen Pharmaceutica NV, priority 2017, published 2020) are described below.

One assay concerns the target T1, BACE2 (Homo sapiens, UniProt Q9Y5Z0).
T1 construct: recombinant BACE2 protein in a final concentration of 0.4 μg/ml
T1 sequence (Q9Y5Z0 63-518): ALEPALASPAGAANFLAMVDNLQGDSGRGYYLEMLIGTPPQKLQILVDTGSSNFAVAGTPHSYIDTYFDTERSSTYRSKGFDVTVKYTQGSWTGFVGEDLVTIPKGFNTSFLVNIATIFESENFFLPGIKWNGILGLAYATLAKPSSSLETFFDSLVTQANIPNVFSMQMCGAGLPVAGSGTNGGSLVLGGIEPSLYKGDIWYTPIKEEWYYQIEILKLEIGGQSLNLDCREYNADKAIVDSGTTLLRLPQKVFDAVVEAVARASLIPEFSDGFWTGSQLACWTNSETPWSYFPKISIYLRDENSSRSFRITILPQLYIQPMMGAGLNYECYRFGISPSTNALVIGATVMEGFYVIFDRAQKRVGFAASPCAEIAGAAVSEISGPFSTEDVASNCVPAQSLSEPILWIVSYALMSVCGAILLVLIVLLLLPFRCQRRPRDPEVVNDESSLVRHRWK
In words: BACE2 biochemical FRET based assay. Conditions: recombinant BACE2 0.4 μg/ml, 10 μM substrate, 450 min, pH 5.0; for IC50: read-out: BIOCHEMICAL FRET BASED ASSAY pIC50 (converted). In short, it runs like this: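 Recombinant enzyme (0.4 μg/ml final) incubated 450 min at room temperature with 10 μM Mca/Dnp-quenched Swedish-mutant APP peptide in 50 mM citrate pH 5.0, 0.05% PEG, no DMSO. Fluorescence (ex 320/em 405 nm) change from T0 to T450 normalised to no-enzyme and enzyme controls; IC50 from least-squares curve fit.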

A further assay addresses T2, BACE1 (Homo sapiens, UniProt P56817).
T2 construct: recombinant BACE1 protein in a final concentration of 0.04 μg/ml
In words: BACE1 biochemical FRET based assay. Conditions: recombinant BACE1 0.04 μg/ml, 20 μM substrate, 450 min, pH 5.0; for IC50: read-out: BIOCHEMICAL FRET BASED ASSAY pIC50 (converted). In short, it runs like this: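 Recombinant BACE1 (0.04 μg/ml final) incubated 450 min at room temperature with 20 μM Mca/Dnp-labelled 13-mer Swedish APP peptide in 50 mM citrate pH 5.0, 0.05% PEG. Fluorescence (ex 320/em 405 nm) at 450 min minus early baseline Tx; IC50 fitted from % Controlmin versus concentration.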

In assay [1] the test system is Abeta 1-42 produced and secreted by SKNBE2 cells expressing hAPP695. In words: Cellular αLisa assay in SKNBE2 cells, Abeta 1-42. It is filed as cell-based, human. Conditions: SKNBE2 cells expressing hAPP695, 18 hours incubation; for IC50: Homo sapiens, SKNBE2, 18 h, read-out: CELLULAR αLISA ASSAY IN SKNBE2 CELLS ABETA 42 PIC50 (converted). In short, it runs like this: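 Human neuroblastoma SKNBE2 cells expressing wild-type hAPP695 treated with compound for 18 h; secreted Abeta total or Abeta 1-42 in medium measured by sandwich αLisa (AbN/25 with Ab4G8 or cAb42/26), read after 1 h. IC50 from least-squares fit of % Controlmin, normalised to untreated and no-antibody controls.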

T2 sequence (P56817 46-501): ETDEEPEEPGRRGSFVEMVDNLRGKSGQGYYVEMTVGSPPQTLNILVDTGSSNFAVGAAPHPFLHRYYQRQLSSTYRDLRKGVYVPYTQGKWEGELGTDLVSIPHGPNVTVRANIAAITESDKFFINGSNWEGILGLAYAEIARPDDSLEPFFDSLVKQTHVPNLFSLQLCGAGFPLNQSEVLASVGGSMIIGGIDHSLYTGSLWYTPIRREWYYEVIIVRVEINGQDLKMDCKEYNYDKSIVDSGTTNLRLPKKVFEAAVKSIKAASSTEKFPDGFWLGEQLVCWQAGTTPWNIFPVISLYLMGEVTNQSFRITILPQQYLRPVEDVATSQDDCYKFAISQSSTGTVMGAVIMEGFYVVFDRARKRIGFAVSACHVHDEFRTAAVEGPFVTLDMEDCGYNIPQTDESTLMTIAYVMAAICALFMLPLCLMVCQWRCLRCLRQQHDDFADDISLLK

Take `COc1ncc(C#N)c2c1C[C@]1(c3ccccc3F)N=C(N)SC[C@@H]1C2` (racemic) [Compound 22]: the IC50 is 240 nM on BACE2, 178 nM on BACE1 and 41.7 nM in assay [1].

On to `COc1ncc(-c2cc(Cl)ccc2C)c2c1C[C@]1(c3ccc(F)cc3F)N=C(N)SC[C@@H]1C2` [Compound 60], for which the “BIOCHEMICAL FRET BASED ASSAY pIC50” value at BACE2 was 6.9; at BACE1 it was 8.26. In addition, in assay [1], the “CELLULAR αLISA ASSAY IN SKNBE2 CELLS ABETA 42 PIC50” value came to 7.25.

As to `COC/C=C/c1cnc(OC)c2c1C[C@H]1CSC(N)=N[C@@]1(c1ccc(F)cc1F)C2` [Compound 47], the IC50 on BACE2 is 6.61 nM; on BACE1, 10.2 nM; in assay [1], 5.62 nM.

For the compound `COc1ncc(-c2ccccc2C)c2c1C[C@]1(c3ccc(F)cc3F)N=C(N)SC[C@@H]1C2` [Compound 55], the “BIOCHEMICAL FRET BASED ASSAY pIC50” value at BACE2 is given as 7.4; on BACE1, 8.45. In assay [1], the “CELLULAR αLISA ASSAY IN SKNBE2 CELLS ABETA 42 PIC50” value came out at 7.99.

In the case of `COc1ncc(-c2ccccc2)c2c1C[C@]1(c3ccc(F)cc3F)N=C(N)SC[C@@H]1C2` [Compound 49], the “BIOCHEMICAL FRET BASED ASSAY pIC50” value at BACE2 was 8.43; on BACE1 it was 8.81. Besides, the “CELLULAR αLISA ASSAY IN SKNBE2 CELLS ABETA 42 PIC50” value in assay [1] is listed as 8.56.

For `COc1cc(C)c(-c2cnc(OC)c3c2C[C@H]2CSC(N)=N[C@@]2(c2ccc(F)cc2F)C3)cn1` [Compound 106], the IC50 was 195 nM at BACE2, 8.71 nM on BACE1 and 5.89 nM in assay [1].
